Columns and labels:
Format in all cases: in vivo
male Sprague-Dawley rats [1] = experiment: Rat hindpaw withdrawal latency (HWL) to thermal stimulation (hot-plate test, 52° C.); details: for % Changes of HWL to Thermal Stimulation 10 Minutes After Intrathecal Injection, Left: Left hindpaw; for % Changes of HWL to Thermal Stimulation 10 Minutes After Intrathecal Injection, Right: Right hindpaw
male Sprague-Dawley rats [2] = experiment: Rat HWL study, both types of stimulation: analgesia and development of complete tolerance; details: drug alone, intrathecal every 12 hrs; mechanical and thermal HWL
Procedure: Experiments were performed on male Sprague-Dawley rats having a weight of 200-250 g. The rats were housed in cages with free access to food and water. Room temperature was maintained at 24±2° C. and a 12 hr light/dark cycle was maintained. All experiments were conducted according to the guidelines of the Committee on Animal Research at the University of California at San Francisco. Every effort was made to minimize animal suffering.
A polyethylene catheter (Intramedic PE 10) was permanently implanted intrathecally with the inner tip at L3 to L5 in each animal. Rats displaying movement disorders following placement of the catheter were not used in the study. […]
In the morphine only group, 8 μg morphine HCl was injected every 12 hrs until complete tolerance developed and in the nociceptin only group, 10 nmol nociceptin was injected every 12 hrs until complete tolerance developed. These doses were chosen from previous studies that determined an equianalgesic dosing for these two drugs. […]
The rats were trained with the testing conditions for five days prior to the experiments to decrease the stress response caused by handling and measurements and to obtain baseline responses. The hindpaw withdrawal latency (HWL) was measured for both thermal and mechanical stimulation. […] The HWLs were measured 15 min after the second intrathecal injection on a daily basis. […]

male Sprague-Dawley rats [3] = experiment: Rat hindpaw withdrawal latency (HWL) to mechanical stimulation (Randall Selitto Test); details: for % Changes of HWL to Mechanical Stimulation 10 Minutes After Intrathecal Injection, Left: Left hindpaw; for % Changes of HWL to Mechanical Stimulation 10 Minutes After Intrathecal Injection, Right: Right hindpaw
[4] = day 1, intrathecal every 12 hrs: 8 μg morphine, 10 nmol nociceptin, or rotated every two days
[5] = day 2, intrathecal every 12 hrs: 8 μg morphine, 10 nmol nociceptin, or rotated every two days
[6] = day 3, intrathecal every 12 hrs: 8 μg morphine, 10 nmol nociceptin, or rotated every two days
[7] = day 4, intrathecal every 12 hrs: 8 μg morphine, 10 nmol nociceptin, or rotated every two days
[8] = day 5, intrathecal every 12 hrs: 8 μg morphine, or morphine/nociceptin rotated every two days
[9] = day 6, intrathecal every 12 hrs: 8 μg morphine, or morphine/nociceptin rotated every two days
[10] = day 1, drug alone, intrathecal (morphine 8 μg or nociceptin 10 nmol every 12 hrs)

Which “% Changes of HWL to Thermal Stimulation 10 Minutes After Intrathecal Injection, Left” value (male Sprague-Dawley rats [1]; [4]) does the source give for `CN1CC[C@]23c4c5ccc(O)c4O[C@H]2[C@@H](O)C=C[C@H]3[C@H]1C5.Cl` [Morphine, morphine HCl] here?
The value was 66.26 ± 2.20%.

And the “% Changes of HWL to Thermal Stimulation 10 Minutes After Intrathecal Injection, Left” value (male Sprague-Dawley rats [1]; [5])?
The value was 61.25 ± 3.05%.

What about the “% Changes of HWL to Thermal Stimulation 10 Minutes After Intrathecal Injection, Left” value (male Sprague-Dawley rats [1]; [6]) of the same molecule?
The value was 51.66 ± 1.73%.

What about the “% Changes of HWL to Thermal Stimulation 10 Minutes After Intrathecal Injection, Left” value (male Sprague-Dawley rats [1]; [7]) of the same molecule?
The value was 43.63 ± 1.38%.

What about the “% Changes of HWL to Thermal Stimulation 10 Minutes After Intrathecal Injection, Left” value (male Sprague-Dawley rats [1]; [8]) of the same molecule?
Its value is 23.85 ± 1.03%.

And the “% Changes of HWL to Thermal Stimulation 10 Minutes After Intrathecal Injection, Left” value (male Sprague-Dawley rats [1]; [9])?
Its value is −1.30 ± 2.36%.

And the “% Changes of HWL to Thermal Stimulation 10 Minutes After Intrathecal Injection, Right” value (male Sprague-Dawley rats [1]; [4])?
The value was 66.66 ± 1.51%.

And the “% Changes of HWL to Thermal Stimulation 10 Minutes After Intrathecal Injection, Right” value (male Sprague-Dawley rats [1]; [5])?
The value was 63.11 ± 0.64%.

What about the “% Changes of HWL to Thermal Stimulation 10 Minutes After Intrathecal Injection, Right” value (male Sprague-Dawley rats [1]; [6]) of the same molecule?
The value was 48.74 ± 2.40%.

And the “% Changes of HWL to Thermal Stimulation 10 Minutes After Intrathecal Injection, Right” value (male Sprague-Dawley rats [1]; [7])?
Its value is 42.45 ± 1.70%.

What about the “% Changes of HWL to Thermal Stimulation 10 Minutes After Intrathecal Injection, Right” value (male Sprague-Dawley rats [1]; [8]) of the same molecule?
Its value is 25.07 ± 2.07%.

And the “% Changes of HWL to Thermal Stimulation 10 Minutes After Intrathecal Injection, Right” value (male Sprague-Dawley rats [1]; [9])?
Its value is 0.51 ± 1.61%.

What about the “HWL increase using thermal stimulation” value (male Sprague-Dawley rats [1]; [10]) of the same molecule?
Its value is “approximately 67%”.

And the “day by which total/complete tolerance exists” value (male Sprague-Dawley rats [2])?
Its value is 6 days.

And the “% Changes of HWL to Mechanical Stimulation 10 Minutes After Intrathecal Injection, Left” value (male Sprague-Dawley rats [3]; [4])?
Its value is 53.99 ± 2.96%.

What about the “% Changes of HWL to Mechanical Stimulation 10 Minutes After Intrathecal Injection, Left” value (male Sprague-Dawley rats [3]; [5]) of the same molecule?
The value was 47.69 ± 2.54%.

And the “% Changes of HWL to Mechanical Stimulation 10 Minutes After Intrathecal Injection, Left” value (male Sprague-Dawley rats [3]; [6])?
Its value is 33.85 ± 1.60%.

What about the “% Changes of HWL to Mechanical Stimulation 10 Minutes After Intrathecal Injection, Left” value (male Sprague-Dawley rats [3]; [7]) of the same molecule?
Its value is 31.37 ± 2.02%.

What about the “% Changes of HWL to Mechanical Stimulation 10 Minutes After Intrathecal Injection, Left” value (male Sprague-Dawley rats [3]; [8]) of the same molecule?
The value was 15.30 ± 1.39%.

And the “% Changes of HWL to Mechanical Stimulation 10 Minutes After Intrathecal Injection, Left” value (male Sprague-Dawley rats [3]; [9])?
The value was 3.26 ± 1.86%.

And the “% Changes of HWL to Mechanical Stimulation 10 Minutes After Intrathecal Injection, Right” value (male Sprague-Dawley rats [3]; [4])?
Its value is 56.04 ± 3.38%.

And the “% Changes of HWL to Mechanical Stimulation 10 Minutes After Intrathecal Injection, Right” value (male Sprague-Dawley rats [3]; [5])?
Its value is 46.74 ± 2.52%.

And the “% Changes of HWL to Mechanical Stimulation 10 Minutes After Intrathecal Injection, Right” value (male Sprague-Dawley rats [3]; [6])?
The value was 33.44 ± 1.03%.

What about the “% Changes of HWL to Mechanical Stimulation 10 Minutes After Intrathecal Injection, Right” value (male Sprague-Dawley rats [3]; [7]) of the same molecule?
The value was 28.84 ± 2.73%.

What about the “% Changes of HWL to Mechanical Stimulation 10 Minutes After Intrathecal Injection, Right” value (male Sprague-Dawley rats [3]; [8]) of the same molecule?
The value was 16.54 ± 1.26%.

And the “% Changes of HWL to Mechanical Stimulation 10 Minutes After Intrathecal Injection, Right” value (male Sprague-Dawley rats [3]; [9])?
The value was 2.72 ± 1.94%.

And the “HWL increase using mechanical stimulation” value (male Sprague-Dawley rats [3]; [10])?
Its value is roughly 55%.

Source: patent US7737118B2, “Rotational intrathecal analgesia” (Omeros Corporation, priority 2001, dated 2010)
